Where two headings read alike, the source gives them in different places.

We go through three compounds from US6818439B1, “Methods for administration of recombinant gene delivery vehicles for treatment of hemophilia and other disorders” (priority 1994, dated 2004).

Data set [1] concerns liver. As to the kind of experiment: Peroxisome proliferator induced liver transduction by beta galactosidase vector, XGAL staining. The data set is classed as in vivo, Balb/C mice.
Experimental: On day 4, 200 ul beta galactosidase retroviral vector (1E9 cfu/ml, DA-Bengal) was injected via tail vein. On day 7, the mice were sacrificed, tissues were fixed in 2% formaldehyde/PBS for 24 hr, and blocked into slices of 2-5 mm. Sections were rinsed in PBS and stained in fresh XGAL solution (5 mM potassium ferricyanide/5 mM potassium ferrocyanide/2 mM MgCl2/0.5mg/ml XGAL in DMF (Gold Scientific)/1×PBS). Tissue was embedded in paraffin (−50 degrees), sectioned at 5 microns (PML, San Diego), and counterstained with Hematoxylin/Eosin.
Data set [2] concerns CT26TK Neo cells. As to the kind of experiment: Effect of ganciclovir on CT26TK Neo cells (TK-3 transduced), cell counts. The following applies: lowest dose 6.25 μg/ml, twice per day for four consecutive days.
Experimental: CT26 cells are transduced with G-pseudotyped TK-3 vector. Twenty-four hours after adding the viral supernatant, the CT26 cells are placed under G-418 selection (450 µg/ml). After 10 days incubation, a G-418 selected pool is obtained and designated CT26TK Neo. CM26 TK Neo cells were seeded into six 10 cm^2 plates at a density of 2.5×10^6 per plate. As controls, each of two other cell types, CT26 and CT26 beta-gal (this cell line was transduced with a retroviral vector carrying the reporter gene β-galactosidase from E. coli.), were also seeded into six 10 cm^2 plates as controls. Five plates of each cell type were treated twice per day for four consecutive days with medium containing ganciclovir concentrations of 100 μg/ml, 50 μg/ml, 25 μg/ml, 12.5 μg/ml and 6.25 μg/ml. One plate of each cell type was left untreated. Afterwards, the cells were removed from each dish using trypsin-EDTA, resuspended in DMEM with 10% FBS and counted.
Data set [3] deals with CT26 cells. Briefly: Effect of ganciclovir on unmodified CT26 cells, cell counts. In kind it is cell-based, mouse. An excerpt: (§1) One plate of each cell type was left untreated.
Data set [4] concerns CT26TK Neo. Briefly: Ganciclovir dose study in mice injected with CT26TK Neo cells (tumor regression). In kind it is in vivo. On the procedure:
In order to test whether in vivo transduction of a murine tumor could be used to treat the disease, an experiment was performed to determine the optimal concentration of ganciclovir necessary to eliminate a tumor that was transduced and selected in vitro to assure 100% transduction. Twelve groups of 3 mice each are injected with 2×10^5 CT26TK Neo cells. Six groups of mice are injected with these cells intraperitoneally (I.P.) and six groups of mice are injected subcutaneously (S.C.). Two other groups of 3 mice each are injected with 2×10^5 unmodified CT26 cells (as a control) either I.P. or S.C.
Ten days after the injection of the CT26 or CT26TK Neo cells into these groups of mice, several concentrations of ganciclovir treatment are initiated. Each dose regimen consists of 2 daily AM and PM I.P. injections of ganciclovir.
Tumor measurements were made for 23 days FIG. 11). CT26TK Neo grew only slightly slower than unmodified CT26 in the absence of ganciclovir. […] After 24 days, the I.P. injected animals were sacrificed and evaluated. The optimal concentration for anti-tumor effect was similar whether the tumor was grown I.P. or S.C.

For data set [5], the system named is CT26. Briefly: Ganciclovir on in vivo tumor growth of unmodified CT26. The following applies: 62.5 mg/Kg I.P. twice daily, S.C. tumor. Also noted: species or system mice. The method, then:
(§2) In order to determine whether ganciclovir has an effect on the growth of unmodified CT26 tumor cells in vivo, 2 groups of 7 mice are injected S.C. with 2×10^5 unmodified CT26 cells and 2 groups of 7 mice are injected S.C. with 2×10^5 CT26TK Neo cells. Seven days after tumor implantation, one group of CT26 injected mice and one group of CT26TK Neo injected mice are placed on a twice daily (AM and PM) regimen of I.P. ganciclovir at 62.5 mg/Kg. These mice are treated for 12 days or until the CT26TK Neo injected animals have no detectable tumor burden. Tumor growth is monitored over a three week period.

Data set [6] has as its system CT26TK Neo. As to the kind of experiment: Ganciclovir on in vivo tumor growth of CT26TK Neo. Set-up: species or system mice. The following applies: 62.5 mg/Kg I.P. twice daily, S.C. tumor. On the procedure: as §2
For data set [7], the system named is CT26 beta-gal cells. As to the kind of experiment: Effect of ganciclovir on CT26 beta-gal cells, cell counts. In kind it is cell-based, mouse.
Excerpt: as §1

A short description of data set [8]: Ganciclovir toxicity in the mouse dose study. The data set is classed as in vivo, mice.
Data set [9] deals with hepatitis B. As to conditions: cited from earlier work.
For data set [10], the system named is hepatitis D. The following applies: cited from earlier work.
For data set [11], the system named is hepatitis C. As to conditions: six months after termination of treatment; cited from earlier work.
[12] abbreviates: 6.25 μg/ml or 12.5 μg/ml, twice per day for four days.

With `Cc1cccc(Nc2cc(Cl)nc(SCC(=O)O)n2)c1C` [WY 14643], in [1] (WY liver: mitogen, no vector), the “blue cells in liver (background staining)” value was “No blue cells”. For the same compound, the “blue cells in liver, periportally and on the periphery” value in [1] (group I: IP 500 μl of 15 mg/ml once per day for 4 days plus beta galactosidase vector) and in [1] (group II: gavage 200 μl of 15 mg/ml once per day for 4 days plus beta galactosidase vector) was “Numerous blue cells” throughout.

In the case of `Nc1nc(O)c2ncn(COC(CO)CO)c2n1` [ganciclovir], the “cytotoxic effect on CT26 TKneo cells” value in data set [2] is listed as “dramatic cytotoxic effect”. Moreover, the “effect on cell growth” value is recorded as “did not have an effect” in data set [3] (setting [12]), “dose-dependent decrease in cell growth” in data set [3] (beginning at 25 ug/ml), “did not have an effect” in [7] (setting [12]) and “dose-dependent decrease in cell growth” in data set [7] (beginning at 25 ug/ml). For the same compound, the tumor regression entry in data set [4] (15.63 mg/Kg, compared to untreated control groups) is “Little or no effect”; in data set [4] (31.25 mg/Kg) it was “Partial tumor regression”; in data set [4] (62.5 mg/Kg regimen, 2 daily I.P. injections), “Complete tumor regression”. The “tumor size versus untreated mice” value in [5] was “somewhat smaller”. In addition, the tumor burden result in [6] was “dramatic decrease in tumor burden”. Besides, the tolerability result in [8] (15.63 mg/Kg, 31.25 mg/Kg and 62.5 mg/Kg groups, treated for an additional 7 days) is “able to tolerate the treatment”. Further, the toxicity observed result in [8] (62.5 mg/Kg groups) was “not life threatening and reversible”. The “survival (toxic effects)” value in [8] (125 mg/Kg, 250 mg/Kg and 500 mg/Kg groups, 2 daily I.P. injections, after 5 days) is listed as “dead due to the toxic effects”.

With alpha interferon, the “patients responding to treatment” value in [9] (patients infected as adults) is on record as “about 35%”; in [9] (perinatal infectees), “about 10%”. Also, the responders relapsed is listed as 85-90% in [10] (in vivo) and “half” in data set [11]. Also, the “patients responding to therapy” value in data set [10] (pilot studies) is recorded as 25-60%.
